From patent US11442059B2, “Method for treating a chronic itch condition by administering small molecule MrgprX4 antagonists” (The Johns Hopkins University, priority 2017, dated 2022)
pEC50: −log10 of the molar value.

Columns and labels:
Type in all cases: cell-based
MRGPRX4-GFP = MRGPRX4-GFP (Homo sapiens, UniProt Q96LA9); experiment: Receptor internalization assay, MRGPRX4-GFP HEK293 cells; conditions: 37° C.
Procedure: To label the drug with red-fluorescent dye, […] of LTG was dissolved in 50 μl dimethyformamide (DMF) first, and further diluted with 450 μl reaction buffer (0.1M sodium bicarbonate buffer, pH9.0) to obtain LTG at a concentration of 7.8 mM. Then, 50 μl of Texas-red-conjugated sulfonyl chloride (Thermo Fisher Scientific, T1905) dissolved in DMF at 10 mg ml−1 was slowly added into LTG solution. The reaction was incubated at 4° C. for 1 hour with continuous stirring. The mixture was then diluted into cell culture medium for further use. LTG labeled with Texas Red dye can create bright red-fluorescence with excitation/emission maxima ˜595/615 nm. HEK293 cells stably expressing Mrgpra1-GFP, Mrgprc11-GFP or MRGPRX4-GFP fusion protein were grown in DMEM with 10% FBS. After 4-6 hours of serum starvation, cells were treated with either medium, dye alone, unlabeled LTG or Texas-Red-labeled LTG at 37° C. for 15 or 60 min. Cells were washed with PBS and fixed with 4% paraformaldehyde in PBS. The subcellular localization of Mrgpr-GFP or drug was visualized under a confocal fluorescence microscope with a 400× magnification (Zeiss LSM 700).

CD11c+MHC-IIhigh cells = experiment: Calcium imaging of sorted mouse splenocytes; conditions: WT CD11c+MHC-IIhigh splenocytes
Procedure: (§1) In initial experiments, HEK293 cells were plated on 100 μg/ml poly-D-lysine coated glass cover slips, and transiently transfected with vector containing Mrgprs gene, after 24-48 hours of culture, cells were loaded with Fura 2-acetomethoxy ester calcium indicator (0.5 μM, Molecular Probes) along with pluronic F-127 dispersing agent (0.1%, Molecular Probes) for 30 minutes in the dark at 37° C., then washed with calcium imaging buffer (CIB; NaCl 125 mM, KCl 3 mM, CaCl2 2.5 mM, MgCl2 0.6 mM, HEPES 10 mM, glucose 20 mM, NaHCO3 1.2 mM, sucrose 20 mM, brought to pH 7.4 with NaOH). Drugs were added to Fura 2-loaded cells and intracellular free calcium was measured using 340 nm and 380 nm excitation wavelengths with emission measured at 520 nm with a microscope based imaging system (Nikon Eclipse TE200). Changes in emission fluorescence ratios at 340/380 nm excitation were continuously monitored at 1 second intervals. Later, experiments were performed using Mrgpra1-GFP, Mrgprc11-GFP and MRGPRX4-GFP stable cell lines to confirm the findings obtained from the transiently expressing cells.
To sort different cell types of splenocytes based on CD11c and MHC-II expression, single cell suspension of mouse splenocytes was prepared as above described. Then. […]

mouse Mrgpra1 = biological target: T1, mouse Mrgpra1 (Mus musculus, UniProt Q91WW5); experiment: Ca2+ imaging / EC50 determination in HEK293 cells expressing Mrgpra1
T1 construct: expressed in transfected cells; host or cells: HEK293
T1 sequence (Q91WW5 1-304): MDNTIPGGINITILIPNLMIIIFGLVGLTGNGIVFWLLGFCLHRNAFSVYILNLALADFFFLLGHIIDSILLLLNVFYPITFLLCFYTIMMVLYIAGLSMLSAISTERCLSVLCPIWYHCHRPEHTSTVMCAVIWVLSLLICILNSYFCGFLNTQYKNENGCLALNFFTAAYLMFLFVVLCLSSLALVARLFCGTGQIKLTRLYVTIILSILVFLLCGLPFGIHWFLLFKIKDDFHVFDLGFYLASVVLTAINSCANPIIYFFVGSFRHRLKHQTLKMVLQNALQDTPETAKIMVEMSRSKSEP
Procedure: (§2) Lamotrigine (LTG), allopurinol, carbamazepine and oxcarbazepine (all from Sigma) were prepared fresh on the day of the experiment. These drugs were dissolved into dimethyl sulfoxide (DMSO) first, and then were diluted at least 10000× into calcium imaging buffer before use. The final concentrations of drugs for each experiment were indicated in the corresponding figure legend.
as §1
(§3) Mrgpra1 or both wild-type and mutant MRGPRX4 stably expressed HEK cells were plated overnight in 100 μl culture media on 96-well plates. […] After 1 hour of incubation at 37° C., cells were allowed to recover for 10 minutes in the dark at room temperature prior to performing intracellular calcium mobilization assay in a FLEXSTATION® multi-mode plate reader (Molecular Devices). […] Responses were determined by subtracting the minimum signal (at the basal level before adding the drug) from the maximum signal (obtained after stimulating with the drug). […]

MRGPRX4 = MRGPRX4 (Homo sapiens, UniProt Q96LA9); experiment: Ca2+ imaging / EC50 determination in HEK293 cells expressing MRGPRX4; parameters: expressed in transfected cells
Procedure: as §2, §1, §3

[1] = Mrgprs individually expressed in HEK293 cells

MRGPRX4, sequence (Q96LA9 whole entry): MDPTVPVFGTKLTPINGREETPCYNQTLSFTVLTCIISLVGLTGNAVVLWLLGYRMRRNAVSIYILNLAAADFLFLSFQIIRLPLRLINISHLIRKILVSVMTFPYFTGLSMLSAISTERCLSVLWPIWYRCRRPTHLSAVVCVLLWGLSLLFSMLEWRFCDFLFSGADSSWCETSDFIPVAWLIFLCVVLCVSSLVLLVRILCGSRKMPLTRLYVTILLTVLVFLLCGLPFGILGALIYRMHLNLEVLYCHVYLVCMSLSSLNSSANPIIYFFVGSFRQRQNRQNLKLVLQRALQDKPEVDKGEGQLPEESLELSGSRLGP
MRGPRX4-GFP, sequence (Q96LA9 whole entry, the tested form may be a part): as the sequence (Q96LA9 whole entry) above

## Nc1nnc(-c2cccc(Cl)c2Cl)c(N)n1 [LTG, Lamotrigine]
MRGPRX4-GFP
  internalization of MRGPRX4-GFP: can induce the internalization
CD11c+MHC-IIhigh cells
  cells responding (Ca2+ imaging): approximately 5%
Mouse Mrgpra1; HEK293 cells, Ca2+ assay
  pEC50: ~4.52
Mouse Mrgpra1; [1]
  activation of mouse Mrgpra1 (Ca2+ imaging): specifically activated
MRGPRX4; HEK293 cells, Ca2+ assay
  pEC50: ~3.70
MRGPRX4; [1]
  activation of human MRGPRX4 (Ca2+ imaging): specifically activated
